Measurements from patent US8426649B2, “Cyclopropenones and the photochemical generation of cyclic alkynes therefrom” (University of Georgia Research Foundation, Inc., priority 2009, dated 2013).
Where two headings read alike, the source gives them in different places.

Experiments:
CHO cells = assay: Detection of cell labeling by fluorescence microscopy; format: cell-based, Chinese hamster
Experimental: Next, attention was focused on visualizing azido-containing glycoconjugates of living cells by confocal microscopy. Thus, adherent Chinese hamster ovary (CHO) cells were cultured in the presence of Ac4ManNAz (100 μM) for three days. The resulting cell surface azido groups were reacted with in situ generated 6b (30 μM) and then visualized with avidin-Alexa fluor 488.
CHO cells bearing azides and untreated control cells were transferred to glass coverslips and cultured for 36 hours in their original medium. Live CHO cells were treated with the biotinylated compound 5b (30 micromolar) in labeling buffer (DPBS, supplemented with FBS (1%)) for 1 hour at room temperature. To activate 5b in situ, immediately after adding the compound to the cells, the cells were subjected to UV light (350 nm) for 1 minute. Next, the cells were incubated with avidin conjugated with Alexa Fluor 488 (Molecular Probes) for 15 minutes at 4° C. Cells were washed 3 times with labeling buffer and fixed with formaldehyde (3.7% in PBS). The nucleus was labeled with the far red-fluorescent TO-PRO-3 dye (Molecular Probes). The cells were mounted with PermaFluor (Thermo Electron Corporation) before imaging. Initial analysis was performed on a Zeiss Axioplan2 fluorescent microscope. […] The step size, based on the calculated optimum for each objective, was between 0.25 and 0.5 micrometers. […]

Jurkat cells [1] = assay: Cell surface labeling detected by fluorescence intensity of cell lysates (avidin-FITC); format: cell-based, Human; conditions: for Incubation time at which labeling was reaching completion: time course
Experimental: Having established that light activation of cyclopropenones results in the clean formation of the corresponding dibenzocyclooctynes, which can undergo cycloadditions with azides (e.g., metal-free cycloadditions in preferred embodiments) to give corresponding triazoles, attention was focused on labeling living cell modified with azido groups. Thus, Jurkat cells were cultured in the presence of […] of peracetylated N-azidoacetylmannosamine (Ac4ManNAz) for 3 days to metabolically introduce N-azidoacetyl-sialic acid (SiaNAz) groups into glycoproteins and glycolipids. As a negative control, Jurkat cells were employed that were grown in the presence of peracetylated N-acetylmannosamine (Ac4ManNAc). The cells were exposed to 30 micromolar of compound 4b, 5b, and 6b for 1 hour at room temperature. In addition, cells and cyclopropenone 5b were exposed to light (350 nm) for 1 minute to form in-situ cyclooctyne 6b and then incubated for 1 hour at room temperature. Next, the cells were washed and stained with avidin-fluorescein isothiocyanate (FITC) for 15 minutes at 4° C. The efficiency of the two-step cell surface labeling was determined by measuring the fluorescence intensity of the cell lysates.
Jurkat cells were cultured in the presence of […] of peracetylated N-azidoacetylmannosamine (Ac4ManNAz) for 3 days to metabolically introduce N-azidoacetyl-sialic acid (SiaNAz) groups into glycoproteins. As a negative control, Jurkat cells were employed that were grown in the presence of peracetylated N-acetylmannosamine (Ac4ManNAc). The cells were exposed to 30 micromoles of compound 4b, 5b, and 6b for 1 hour at 37° C. In addition, cells and cyclopropenone 5b were exposed to light (350 nm) for 1 minute to form in-situ cyclooctyne 6b and then incubated for 1 hour at 37° C. Next, the cells were washed and stained with avidin-fluorescein isothiocyanate (FITC) for 15 minutes at 4° C. and the efficiency of the two-step cell surface labeling was determined by measuring the fluorescence intensity of the cell lysates.
Jurkat cells were seeded at a density of 75,000 cells mL^−1 in a total volume of 40 mL culture medium in the presence of peracetylated N-azidoacetylmannosamine (Ac4ManNaz; 25 micromolar final concentration) and grown for 3 days, leading to the metabolic incorporation of the corresponding N-azidoacetyl sialic acid (SiaNAz) into their cell surface glycoproteins. Control cells were grown in the presence of peracetylated N-acetylmannosamine (Ac4ManNac; 25 micromolar final concentration) for 3 days. Similarly, CHO cells were grown for 3 days in the presence of Ac4ManNaz (100 micromolar final concentration) or Ac4ManNac (100 micromolar final concentration).
Jurkat cells bearing azides and control cells were washed with labeling buffer (DPBS, pH 7.4 containing 1% FBS and 1% BSA), transferred to round bottom tubes (1×10^6 cells/sample) and incubated with the biotinylated compounds 4b, 5b, or 6b (0-100 micromolar) in labeling buffer for 0-90 minutes at room temperature. To activate 5b in situ, immediately after adding the compound to the cells, the cell suspension was subjected to UV light (350 nm) for 1 minute. The cells were washed three times with cold labeling buffer and then incubated with avidin conjugated with fluorescein (0.5 microgram/ml; Molecular Probes) for 15 minutes at 4° C. Following three washes and cell lysis in passive lysis buffer (Promega), cell lysates were analysed for fluorescence intensity (485 ex/520 em) using a microplate reader (BMG Labtech). Data points were collected in triplicate and are representative of three separate experiments. Fluorescence of Jurkat cell lysates was expressed as fluorescence (arbitrary units; AU) per 800,000 cells.

Jurkat cells [2] = assay: Western blot analysis of cell surface labeling; format: cell-based, Human; conditions: 30 micromolar, 1 hour; 5b in-situ activated
Experimental: To identify the nature of the azide-labeled Jurkat glycoconjugates, cell lysates were analyzed by Western blot analysis (FIG. 8). Jurkat cells grown for 3 days in the presence of Ac4ManNAc or Ac4ManNAz were incubated with compounds in-situ activated 5b or 6b (30 micromolar) and then lysed. The Western blot was probed with an anti-biotin antibody conjugated to horseradish peroxidase (HRP). […] Furthermore, similar patterns of labeling were apparent after incubation with in-situ activated 5b and 6b.
Jurkat cells were harvested by centrifugation (5 minutes at 1,400 rpm) and resuspended as 5×10^6 cells/mL. The cell suspensions (250 microliters per sample) were incubated with biotin-conjugated alkynes 4b, 5b, and 6b (30 micromolar) or without compound as control for 1 hour. To activate 5b in situ, immediately after adding the compound to the cells, the cell suspension was subjected to UV light (350 nm) for 1 minute. The cells were washed (4×10 minutes) with cold DPBS, pH 7.4 containing FBS (1%) and lysed in passive lysis buffer. The cell lysates were clarified by centrifugation at 15,000 rpm for 15 minutes and the total protein content of the clear supernatants was assessed using the bicinchonic acid assay (BCA; Pierce Biotechnology). […]

Jurkat cells [3] = assay: Measurement of cytotoxicity (trypan blue exclusion, MTT); format: cell-based, Human
Experimental: Cell viability was also examined after incubation with 5b with and without light activation followed by reincubation for 5 hours (see Examples). In both cases, the ability of the cells to reduce MTT to its insoluble formazan salt was […].
Cell viability and cell morphology were assessed by exclusion of trypan blue followed microscopic evaluation immediately after photoactivation or after reincubation of the labeled cells in cell culture medium for 5 hours or overnight. Viability was measured by quantifying the cellular ability to reduce the water-soluble tetrazolium dye 3-4,5-dimethylthiazole-2,5-diphenyl tetrazolium bromide (MTT) to its insoluble formazan salt (e.g., Sgouras et al., J. Mater. Sci.: Materials in Medicine 1990, 1:61-68). Data points were collected in triplicate and expressed as normalized values for control cells (100%).

[4] = literature values (Baskin 2007; Ning/Boons 2008), cited from earlier work
[5] = 30 micromolar, 1 hour, room temperature, cells grown with Ac4ManNAz
[6] = 30 micromoles, 1 hour at 37° C., cells grown with Ac4ManNAz

SMILES | Cell surface labeling (fluorescence intensity of cell lysates) (Jurkat cells [1]; [5]) | Incubation time at which labeling was reaching completion (Jurkat cells [1]; 30 micromolar) [min] | Glycoprotein labeling on Western blot (anti-biotin-HRP) (Jurkat cells [2]) | Cell surface labeling (fluorescence intensity of cell lysates) (Jurkat cells [1]; [6]) | Reported rate of the reaction of cyclooctynes with benzyl azide [4] [M⁻¹ s⁻¹] | other results
CCCCOc1ccc2c(c1)CCc1cc(OCCOCCOC(=O)NCCOCCOCCNC(=O)CCCCC3SCC4NC(=O)NC43)ccc1C#C2 (centres unmarked) [6b, 2-{2-[(9-Butoxy-5,6-didehydro-11,12-dihydrodibenzo[a,e][8]annulen-2-yl)oxy]ethoxy}ethyl {2-[2-(2-{[5-(2-oxohexahydro-1H-thieno[3,4-d]imidazol-4-yl)pentanoyl]amino}ethoxy)ethoxy]ethyl}carbamate] | strong labeling | 60 | Significant glycoprotein labeling was only observed in lysates from cells grown in the presence of Ac4ManNAz |  |  | Staining of azido-containing glycoconjugates (confocal microscopy, avidin-Alexa fluor 488) (CHO cells; in situ generated, 30 μM, cells grown with Ac4ManNAz 100 μM): staining was only observed at the cell surface; Fluorescent reading compared with 4b (Jurkat cells [1]; at low concentration): somewhat higher fluorescent reading than 4b
CCCCOc1ccc2c(c1)CCc1cc(OCCOCCOC(=O)NCCOCCOCCNC(=O)CCCCC3SCC4NC(=O)NC43)ccc1-c1c-2c1=O (centres unmarked) [5b, 2-{2-[(9-Butoxy-1-oxo-6,7-dihydro-1H-dibenzo[a,e]cyclopropa-[c][8]annulen-4-yl)oxy]ethoxy}ethyl {2-[2-(2-{[5-(2-oxohexahydro-1H-thieno[3,4-d]imidazol-4-yl)pentanoyl]amino}ethoxy)ethoxy]ethyl}carbamate] |  |  | Significant glycoprotein labeling was only observed in lysates from cells grown in the presence of Ac4ManNAz | strong labeling |  | Staining (confocal microscopy, avidin-Alexa fluor 488) (CHO cells; in the dark, cells metabolically labeled with ManNAz): negligible staining; Cell surface labeling (fluorescence intensity of cell lysates) (Jurkat cells [1]; in the dark (no activation), 30 micromolar, 1 hour, room temperature): low fluorescence intensities; Cell surface labeling (fluorescence intensity of cell lysates) (Jurkat cells [1]; in the dark (no activation), 1 hour at 37° C.): low fluorescence intensities; Cell surface labeling (fluorescence intensity of cell lysates) (Jurkat cells [1]; in-situ activation, 350 nm 1 minute, then 1 hour at 37° C.): equally efficient cell labeling; Cell surface labeling (fluorescence intensity of cell lysates) (Jurkat cells [1]; in-situ activation, 350 nm 1 minute, then 1 hour at room temperature, 30 micromolar): equally efficient cell labeling; Cell viability and morphology (trypan blue exclusion) (Jurkat cells [3]; 30 micromolar 5b with and without UV light activation (1 minute at 350 nm)): no changes were observed; Ability of the cells to reduce MTT to formazan (Jurkat cells [3]; with and without light activation, reincubation for 5 hours): negligible
O=C(O)COC1CCC#CC(F)(F)CC1 (centres unmarked) [2-[(6,6-difluoro-4-cyclooctyn-1-yl)oxy]-acetic acid] |  |  |  |  | 0.076 | 
O=C(CCCC[C@@H]1SC[C@@H]2NC(=O)N[C@@H]21)NCCOCCOCCOCCNC(=O)OC1Cc2ccccc2C#Cc2ccccc21 (stereo partly drawn) [4b, 11,12-didehydro-5,6-dihydrodibenzo[a,e]cycloocten-5-yl ester of 19-[(3aS,4S,6aR)-hexahydro-2-oxo-1H-thieno[3,4-d]imidazol-4-yl]-15-oxo-5,8,11-trioxa-2,14-diazanonadecanoic acid, reference compound] | strong labeling | 60 |  | strong labeling |  | 
OC1Cc2ccccc2C#Cc2ccccc21 (centres unmarked) [4a, 11,12-didehydro-5,6-dihydro-dibenzo[a,e]cycloocten-5-ol] |  |  |  |  | 0.17 | Reported rate of the reaction of cyclooctynes with benzyl azide ([4]; listed as 11,12-didehydro-5,6-dihydro-dibenzo[a,e]cycloocten-5-ol): 0.0568 M⁻¹ s⁻¹
